The values that follow come from patent US20090023799A1, “CRYSTALS OF (2-AMINO-4,5,6,7-TETRAHYDROBENZO[b]THIEN-3-YL)(4-CHLOROPHENYL)METHANONE” (priority 2007, published 2009).

≈ marks a conversion by molar mass, not a printed value. Where two headings read alike, the source gives them in different places.

In one series the target is T1, adenosine A1 receptors (Homo sapiens, UniProt P30542).
T1 sequence (P30542 1-326): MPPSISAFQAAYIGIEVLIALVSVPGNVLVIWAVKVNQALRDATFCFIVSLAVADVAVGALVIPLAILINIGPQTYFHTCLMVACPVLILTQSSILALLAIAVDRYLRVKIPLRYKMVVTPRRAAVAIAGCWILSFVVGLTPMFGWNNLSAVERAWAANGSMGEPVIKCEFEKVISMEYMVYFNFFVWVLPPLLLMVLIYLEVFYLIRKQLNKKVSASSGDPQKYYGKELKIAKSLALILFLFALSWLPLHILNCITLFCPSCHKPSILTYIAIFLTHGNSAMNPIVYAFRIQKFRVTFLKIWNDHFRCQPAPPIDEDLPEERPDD
The conditions noted are these: U.S. Pat. No. 6,248,774 and No. 6,489,356, cited from earlier work.

A short description of series [1]: Solid-state conversion of crystal forms on heating or humidity. It is filed as physicochemical.
Series [2] is described as follows: Stability to mechanical grinding/milling (ball-milling, XRPD). It is filed as physicochemical. As to conditions: XRPD analysis of the milled material. The text has this:
(§1) The crystal forms of T-62 are preferably substantially stable to grinding. Stability to grinding may be assessed by measurement of an appropriate physical property before and after grinding. Where the physical property remains substantially unchanged, substantial stability to grinding is indicated. Suitable physico-chemical properties for measurement include a melting point, a X-ray diffraction pattern, an infra red absorption spectrum and a Raman spectrum, particularly the X-ray diffraction pattern. For example, Form I crystal form of T-62 is stable to mechanical milling and cryogrinding as indicated by XRPD analyses of the milled and ground material, respectively.
Stability to mechanical grinding/milling may be tested, e.g., by employing a small stainless steel cylinder. The cylinder is charged with a weighted amount of a crystal form of T-62 and a stainless steel ball is added, the cylinder is capped and the unit is placed on a Retsch Mixer Mill (Type MM 200) for a total of 3 min at a frequency of 30/s (ball-milling).

Series [3] in a line: Moisture sorption/desorption analysis. The series is classed as physicochemical. The protocol:
Moisture sorption/desorption analyses may be performed on a VTI SGA-100 Vapor Sorption Analyzer, or a similar instrument. Sorption and desorption data are collected, e.g., over a range of 5 to 95% relative humidity (RH) at 10% RH intervals under a nitrogen purge. Samples need not to be dried prior to analysis. Equilibrium criteria used for analysis are, e.g., less than 0.01% weight change in 5 min, with a maximum equilibration time of 3 h if the weight criterion is not met. NaCl and PVP may be used as calibration standards.

Series [4] is described as follows: Stability to cryogrinding (XRPD). The conditions noted are these: XRPD analysis of the ground material. The series is classed as physicochemical.
Source text: as §1
Stability to cryogrinding may be tested, e.g., by employing a polycarbonate freezer mill tube. The tube is charged with a weighted amount of a crystal form of T-62 and a stainless steel rod is added, the tube is capped and the unit is shaken in a SPEX Certiprep 6750 Freezer Mill for a total of 0.6 min in liquid nitrogen at a rate of 10 Hz.

Series [5] can be described thus: Approximate solubilities of Form I crystals of T-62 (solvent added until clear solution). The series is classed as physicochemical. As to conditions: RT. The protocol:
Solubilities for Form I crystals of T-62 may be estimated based on total solvent used to give a clear solution. A test solvent, either reagent or HPLC (high pressure liquid chromatography) grade, is added in measured aliquots, e.g., 200 or 500 μL, to an accurately weighed sample of T-62 (typically 50 to 90 mg). For some samples, sonication is applied between solvent additions to aid dissolution. Generally, solvent is added until a clear solution is obtained. Actual solubilities may be greater than those shown in Table 7 because of the volume of the solvent portions utilized or a slow rate of dissolution.

`Nc1sc2c(c1C(=O)c1ccc(Cl)cc1)CCCC2` [Form T-62, (2-amino-4,5,6,7-tetrahydrobenzo[b]thiophen-3-yl)(4-chlorophenyl)methanone]: the “Adverse side effects associated with administration of adenosine” value at adenosine A1 receptors is on record as “devoid of the adverse side effects”. The “Effect on inflammatory and neuropathic pain” value on adenosine A1 receptors (orally effective) was “reduce inflammatory and neuropathic pain”.

As to `Nc1sc2c(c1C(=O)c1ccc(Cl)cc1)CCCC2` [Form III, (2-amino-4,5,6,7-tetrahydrobenzo[b]thiophen-3-yl)(4-chlorophenyl)methanone], the “Crystal form conversion on heating” value in series [1] (heating to about 104° C. under argon purge) is listed as “converted to the Form I crystal form”. Moreover, in series [1] (high humidity, solvent is lost), the “Crystal form conversion under high humidity” value is on record as “converts to Form I crystal form”. Moreover, the “Crystal form conversion upon heating” value in series [1] (upon heating) is “converts to Form I crystals”.

Consider `Nc1sc2c(c1C(=O)c1ccc(Cl)cc1)CCCC2` [Form I, (2-amino-4,5,6,7-tetrahydrobenzo[b]thiophen-3-yl)(4-chlorophenyl)methanone], for which the “Stability to mechanical milling” value in series [2] is recorded as “stable”. Besides, the “Crystal form after moisture sorption/desorption analysis” value in series [3] is recorded as “remains the same”. Besides, the “Weight gain or loss in moisture sorption/desorption analysis” value in series [3] is “no significant weight gain or loss”. In addition, the Hygroscopicity result in series [3] (moisture sorption/desorption analysis) is recorded as “non-hygroscopic”. The Stability to cryogrinding entry in series [4] was “stable”. The solubility result in series [5] (water) is “practically insoluble”; in series [5] (aqueous with cosolvent or surfactant or cyclodextrin, thermodynamic from solid, ACN:H2O - 1:1, read-out: Solubility), 8.4 mg/mL (≈ 28.8 mM); in series [5] (organic solvent or mixture, thermodynamic from solid, ACN, read-out: Solubility), 11.1 mg/mL (≈ 38 mM); in series [5] (organic solvent or mixture, thermodynamic from solid, CHCl3, read-out: Solubility), 175 mg/mL (≈ 598 mM); in series [5] (organic solvent or mixture, thermodynamic from solid, EtOAc, read-out: Solubility) it was 67.8 mg/mL (≈ 232 mM); in series [5] (organic solvent or mixture, thermodynamic from solid, EtOH:H2O - 95:5, read-out: Solubility), 12.8 mg/mL (≈ 43.9 mM). Moreover, the solubility in series [5] (organic solvent or mixture, thermodynamic from solid, EtOH, read-out: Solubility) turned out to be 16.6 mg/mL (≈ 56.9 mM); in series [5] (organic solvent or mixture, thermodynamic from solid, IPA, read-out: Solubility), 13.1 mg/mL (≈ 44.9 mM); in series [5] (organic solvent or mixture, thermodynamic from solid, MEK, read-out: Solubility), 132 mg/mL (≈ 453 mM); in series [5] (organic solvent or mixture, thermodynamic from solid, MeOH:H2O - 95:5, read-out: Solubility), 8.7 mg/mL (≈ 29.8 mM); in series [5] (organic solvent or mixture, thermodynamic from solid, MeOH, read-out: Solubility), 19.8 mg/mL (≈ 67.9 mM); in series [5] (organic solvent or mixture, thermodynamic from solid, N,N-dimethylformamide (DMF), read-out: Solubility), 129 mg/mL (≈ 441 mM). The solubility came out at 338 mg/mL (≈ 1160 mM) in series [5] (organic solvent or mixture, thermodynamic from solid, THF, read-out: Solubility); 59.8 mg/mL (≈ 205 mM) in series [5] (organic solvent or mixture, thermodynamic from solid, acetone, read-out: Solubility); 9.8 mg/mL (≈ 33.6 mM) in series [5] (organic solvent or mixture, thermodynamic from solid, cyclohexane, read-out: Solubility); 21.4 mg/mL (≈ 73.3 mM) in series [5] (organic solvent or mixture, thermodynamic from solid, di-n-butyl ether, read-out: Solubility); 85.3 mg/mL (≈ 292 mM) in series [5] (organic solvent or mixture, thermodynamic from solid, dichloromethane, read-out: Solubility); 5.9 mg/mL (≈ 20.2 mM) in series [5] (organic solvent or mixture, thermodynamic from solid, diisopropyl ether, read-out: Solubility). In addition, the solubility in series [5] (organic solvent or mixture, thermodynamic from solid, dimethylsulfoxide (DMSO), read-out: Solubility) is 183 mg/mL (≈ 626 mM); in series [5] (organic solvent or mixture, thermodynamic from solid, dioxane, read-out: Solubility), 74.9 mg/mL (≈ 257 mM); in series [5] (organic solvent or mixture, thermodynamic from solid, hexanes, read-out: Solubility), 5.6 mg/mL (≈ 19.2 mM); in series [5] (organic solvent or mixture, thermodynamic from solid, nitromethane, read-out: Solubility) it was 12 mg/mL (≈ 41.1 mM); in series [5] (organic solvent or mixture, thermodynamic from solid, octanol, read-out: Solubility) it was 19.7 mg/mL (≈ 67.5 mM); in series [5] (organic solvent or mixture, thermodynamic from solid, toluene, read-out: Solubility) it was 45.7 mg/mL (≈ 157 mM).

`Nc1sc2c(c1C(=O)c1ccc(Cl)cc1)CCCC2` [Form II, (2-amino-4,5,6,7-tetrahydrobenzo[b]thiophen-3-yl)(4-chlorophenyl)methanone]: the “Weight gain in moisture sorption/desorption analysis” value in series [3] (at 95% RH) was 0.1%.

For `Nc1sc2c(c1C(=O)c1ccc(Cl)cc1)CCCC2` [Form IV, (2-amino-4,5,6,7-tetrahydrobenzo[b]thiophen-3-yl)(4-chlorophenyl)methanone], in series [1] (heating for 2 min at 75° C. in a sealed capillary), the “Crystal form conversion on heating” value is listed as “converted to the Form IV crystal form”.
